Key:
Assay in all cases: Yeast 6x EcRE-lacZ β-galactosidase transactivation assay
Aa EcR + Aa USPa = assay type: cell-based, Aedes aegypti; conditions: RH 5992 10 μM, 4 hours, DMSO control 2.300
Experimental: (§1) Briefly, yeast cells are cultured in 5 mL of YPD liquid medium overnight at 30° C. The cell culture was diluted 1:20 in YPD media and further grown until cell density reached an O.D of 0.6. at OD600. The cells were pelleted by centrifugation and washed with 10 mL of TE+0.1M lithium acetate. Cells are then resuspended in 10 mL TE+0.1M lithium acetate and incubated at 30° C. for 1 hour. Cells are collected and resuspended in 0.5 mL of TE+ 0.1M lithium acetate. Aliquots of cells (50 μL), were incubated for 15 minutes at 30° C. with 1–2 μg plasmid DNA in the presence of 5 μg of denatured salmon sperm DNA as DNA carrier. In the case of co-transformation, the indicated plasmids were added simultaneously. 50% polyethyleneglycol of molecular weight 4000, diluted in TE, was added to a final concentration of 35%. DMSO was added to the transformation solution simultaneously to a final concentration 3%. The samples were mixed well by vortexing and incubated for an additional 30 minutes at 30° C. The cell mixture is then heated for 15 minutes at 42° C. Cells were then collected and plated onto appropriate yeast selective media. Transformants of 4 plasmids are selected on the complete media without tryptophan, uracil, leucine and histidine.
(§2) The yeast cells grown overnight in selective liquid media at 30° C. were diluted in prewarmed liquid selective media to 0.1 at OD600 (ODculture). 100 μl of the cell culture was spiked to each well of a.96-well microtiter plate. Ligand (2 μl diluted in DMSO) was added to each well giving a final concentration of DMSO of 2%. As a control, 2 μl of DMSO were also added to additional test wells. The final concentration of the tested compounds in the media is 10 μM. The cells were incubated in the presence of ligand in a shaker at 30° C. After 4 hours of incubation, 100 μl of 2× “Z” Sarcosine-ONPG buffer (120 mM Na2HPO4, 80 mM NaH2PO4, 20 mM KCl, 2 mM MgSO4, 100 mM beta-mercaptoethanol (Sigma), pH 7.0, 0.4% lauroyl sarcosine (Sigma), 4 mg/mL ONPG (Diagnostic Chemicals limited) was added to each well and the plate was further incubated at 37° C. The 2× “Z” Sarcosine-ONPG buffer is freshly prepared or stored at −20° C. prior to use. After incubation at 37° C. for 1 hour. The reaction was stopped by adding 100 μL of quenching solution 0.5 M Na2CO3 and OD405 (ODreaction) and beta-galactosidase activity was measured in a micro plate reader (Biotek) at a wave length of 405–450 nanometers. The effect of copper on enhancement of the transactivation response mediated by the ligands tested was studied by adding CuSO4 to the media to a final concentration of 10 μM.
(§3) Using the transformation method described above, yeast were co-transformed with a reporter gene as shown in FIG. 2 and the expression vector encoding the full-length Aedes aegypti ecdysone receptor, Aa EcR (FIG. 7A) in the presence or absence of the Aa EcR heterodimer partner, Aa USP (a or b form, FIGS. 8A and 8B respectively). Transformed cells were incubated with DMSO alone as a control, or with a proprietary ecdysone receptor ligand (Rohm & Haas tebufenozide[RH5992]) at final concentration 10 μM for 4 hours. The samples were then assayed for β-galactosidase activity as described above. […] As the N-terminal portion of the AaEcR receptor is reported to play a role in ligand independent transactivation, an expression vector containing an N-terminal deletion in the Aa EcR was constructed (see FIG. 7B) and assessed in the β-galactosidase assays described above. […] Restoration of ligand dependent transactivation was observed only when the AaΔN EcR, AaUSP (a or b forms) and co-activator GRIP1 were coexpressed. As in the Drosophila system, the data obtained indicate that the efficiency of ligand-dependent transactivation of the ecdysone receptor in mosquito A. aegypti is dependent on the both heterodimer formation of EcR/USP and also upon proper interaction with co-activator GRIP1.

Aa EcR + Aa USPb = assay type: cell-based, Aedes aegypti; conditions: RH 5992 10 μM, 4 hours, DMSO control 3.000
Experimental: as §1, §2, §3

Aa USPa = assay type: cell-based, Aedes aegypti; conditions: RH 5992 10 μM, 4 hours, DMSO control 0.210
Experimental: as §1, §2, §3

Aa USPb = assay type: cell-based, Aedes aegypti; conditions: RH 5992 10 μM, 4 hours, DMSO control 0.196
Experimental: as §1, §2, §3

Aa ΔA/B EcR + Aa USPa = assay type: cell-based, Aedes aegypti; conditions: 4 hours
Experimental: as §1, §2, §3

[1] = system: Aa ΔA/B EcR + Aa ΔA/B USP + GRIP1; assay type: cell-based, Aedes aegypti; conditions: RH 5992 10 μM, 4 hours, DMSO control 0.194
Experimental: as §1, §2, §3

[2] = system: Aa ΔA/B EcR + Aa ΔA/B USP; assay type: cell-based, Aedes aegypti; conditions: RH 5992 10 μM, 4 hours, DMSO control 0.187
Experimental: as §1, §2, §3

[3] = target: T1, Aa ΔA/B EcR + AaUSPb + GRIP1 (Aedes aegypti, UniProt P49880); assay type: cell-based; conditions: RH 5992 10 μM, 4 hours, DMSO control 0.240
T1 construct: ubiquitin (human, 76 aa) (N, cleaved yes); expressed in transfected cells
Experimental: as §1
The yeast cells grown overnight in selective liquid media at 30° C. were diluted in prewarmed liquid selective media to 0.1 at OD600 (ODculture). 100 μl of the cell culture was spiked to each well of a.96-well microtiter plate. […] After 4 hours of incubation, 100 μl of 2× “Z” Sarcosine-ONPG buffer (120 mM Na2HPO4, 80 mM NaH2PO4, 20 mM KCl, 2 mM MgSO4, 100 mM beta-mercaptoethanol (Sigma), pH 7.0, 0.4% lauroyl sarcosine (Sigma), 4 mg/mL ONPG (Diagnostic Chemicals limited) was added to each well and the plate was further incubated at 37° C. The 2× “Z” Sarcosine-ONPG buffer is freshly prepared or stored at −20° C. prior to use. After incubation at 37° C. for 1 hour. The reaction was stopped by adding 100 μL of quenching solution 0.5 M Na2CO3 and OD405 (ODreaction) and beta-galactosidase activity was measured in a micro plate reader (Biotek) at a wave length of 405–450 nanometers. […]
Using the transformation method described above, yeast were co-transformed with a reporter gene as shown in FIG. 2 and the expression vector encoding the full-length Aedes aegypti ecdysone receptor, Aa EcR (FIG. 7A) in the presence or absence of the Aa EcR heterodimer partner, Aa USP (a or b form, FIGS. 8A and 8B respectively). […] As the N-terminal portion of the AaEcR receptor is reported to play a role in ligand independent transactivation, an expression vector containing an N-terminal deletion in the Aa EcR was constructed (see FIG. 7B) and assessed in the β-galactosidase assays described above. […]

T1 sequence (P49880 with tags, fused parts or gaps): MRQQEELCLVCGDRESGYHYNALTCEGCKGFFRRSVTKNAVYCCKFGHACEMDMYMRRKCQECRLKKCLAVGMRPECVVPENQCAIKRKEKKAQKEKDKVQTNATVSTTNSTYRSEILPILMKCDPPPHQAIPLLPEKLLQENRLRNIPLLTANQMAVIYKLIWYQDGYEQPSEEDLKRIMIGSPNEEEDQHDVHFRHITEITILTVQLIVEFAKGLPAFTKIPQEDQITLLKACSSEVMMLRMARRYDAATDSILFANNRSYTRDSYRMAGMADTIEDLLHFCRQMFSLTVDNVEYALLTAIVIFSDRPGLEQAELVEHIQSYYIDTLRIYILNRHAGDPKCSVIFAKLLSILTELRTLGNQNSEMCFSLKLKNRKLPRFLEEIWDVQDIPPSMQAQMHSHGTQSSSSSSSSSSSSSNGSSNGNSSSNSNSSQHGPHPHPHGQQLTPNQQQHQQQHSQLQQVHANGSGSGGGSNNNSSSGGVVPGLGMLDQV

## CCc1ccc(C(=O)NN(C(=O)c2cc(C)cc(C)c2)C(C)(C)C)cc1 [RH 5992, tebufenozide]
Aa EcR + Aa USPa
  β-galactosidase activity: 2.453
Aa EcR + Aa USPb
  β-galactosidase activity: 2.700
Aa USPa
  β-galactosidase activity: 0.223
Aa USPb
  β-galactosidase activity: 0.210
Aa ΔA/B EcR + Aa USPa; 10 μM, Aa EcR with N-terminal deletion, Aa USP present or absent, no GRIP1
  transactivation of the reporter gene (in words): incapable of transactivating the reporter gene
Aa ΔA/B EcR + Aa USPa; RH 5992 10 μM, yeast, Aa ΔA/B EcR + Aa USPa, DMSO control 0.194
  β-galactosidase activity: 0.209
[1]
  β-galactosidase activity: 1.370
[2]
  β-galactosidase activity: 0.196
[3]
  β-galactosidase activity: 2.074
